Consider 16 molecules from paper PMC10342305, “Identification of N-Acyl Hydrazones as New Non-Zinc-Binding MMP-13 Inhibitors by Structure-Based Virtual Screening Studies and Chemical Optimization” (International Journal of Molecular Sciences, 2023).

Each structure is given as a SMILES string. Bounds are passed on as bounds.

A word on the IC50: it is the concentration at which inhibition is half-maximal. A word on the melting point: it is the temperature of the solid-liquid transition.

One data set concerns the target T1, MMP-14 (Homo sapiens, UniProt P50281).
T1 construct: Recombinant human MMP-14 catalytic domain; gift from Prof; Gillian Murphy (Department of Oncology, University of Cambridge, UK)
The experiment in a line: Fluorometric enzyme inhibition assay on MMP-14 catalytic domain. The data set is classed as biochemical. The following applies: mean ± SD of three independent experiments. Here is the method:
(§1) Recombinant human MMP-14 catalytic domain was a kind gift from Prof. Gillian Murphy (Department of Oncology, University of Cambridge, UK). Pro-MMP-1, pro-MMP-2, pro-MMP-9, and pro-MMP-13 were purchased from Merck Millipore (Burlington, MA, USA). p-Aminophenylmercuric acetate (APMA) was from Sigma-Aldrich (St. Louis, MO, USA).
(§2) For assay measurements, the purchased compound stock solutions (10 mM in DMSO) were further diluted for each MMP in the fluorometric assay buffer (FAB: Tris 50 mM, pH = 7.5, NaCl 150 mM, CaCl2 10 mM, Brij 35 0.05%, and DMSO 1%), following the protocol already reported. […] The assays were performed in triplicate with a total volume of 200 μL per well in 96-well microtitre plates (Corning, black, NBS, Turin, Italy). The MMP inhibition activity was expressed in relative fluorescent units (RFU). The percentage of inhibition was calculated from control reactions without the inhibitor. The inhibitory effect of the tested compounds was routinely estimated at a concentration of 100 μM on MMP-13. […] Results were analyzed using SoftMax Pro software version 5.4.3 (Molecular Devices, Sunnyvale, CA, USA) and Prism Software version 5.0 (GraphPad Software, Inc., La Jolla, CA, USA).

A further data set deals with T2, MMP-1 (Homo sapiens, UniProt P03956).
T2 sequence (P03956 100-469): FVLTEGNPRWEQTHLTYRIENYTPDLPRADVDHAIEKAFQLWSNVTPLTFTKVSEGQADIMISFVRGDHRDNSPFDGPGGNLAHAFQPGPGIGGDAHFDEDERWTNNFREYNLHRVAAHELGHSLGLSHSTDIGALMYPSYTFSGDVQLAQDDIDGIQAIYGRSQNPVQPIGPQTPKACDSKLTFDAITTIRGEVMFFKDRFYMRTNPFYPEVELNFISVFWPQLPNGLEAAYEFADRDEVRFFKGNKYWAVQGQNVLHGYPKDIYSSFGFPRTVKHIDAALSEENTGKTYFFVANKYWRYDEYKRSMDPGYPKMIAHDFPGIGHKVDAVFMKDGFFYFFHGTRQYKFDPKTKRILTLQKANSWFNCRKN
The data set can be described thus: Fluorometric enzyme inhibition assay on MMP-1.

Another data set deals with T3, MMP-2 (Homo sapiens, UniProt P08253).
T3 sequence (P08253 110-660): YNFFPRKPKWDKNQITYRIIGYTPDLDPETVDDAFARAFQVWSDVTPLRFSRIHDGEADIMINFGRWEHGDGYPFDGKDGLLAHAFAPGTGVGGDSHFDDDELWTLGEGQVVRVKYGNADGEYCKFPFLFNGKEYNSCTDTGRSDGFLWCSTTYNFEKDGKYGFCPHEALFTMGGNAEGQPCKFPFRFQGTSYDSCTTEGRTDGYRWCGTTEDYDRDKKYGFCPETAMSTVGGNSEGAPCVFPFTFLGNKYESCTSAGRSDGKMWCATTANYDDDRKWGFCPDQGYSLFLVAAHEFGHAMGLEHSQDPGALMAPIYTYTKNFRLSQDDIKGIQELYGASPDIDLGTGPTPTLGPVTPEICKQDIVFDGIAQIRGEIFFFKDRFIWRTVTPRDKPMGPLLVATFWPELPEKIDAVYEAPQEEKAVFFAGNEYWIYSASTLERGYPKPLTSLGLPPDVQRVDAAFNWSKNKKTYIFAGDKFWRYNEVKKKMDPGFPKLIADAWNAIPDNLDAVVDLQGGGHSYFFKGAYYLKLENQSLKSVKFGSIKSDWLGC
The data set can be described thus: Fluorometric enzyme inhibition assay on MMP-2.

In the next data set the target is MMP-9 (Homo sapiens, UniProt P14780). The data set can be described thus: Fluorometric enzyme inhibition assay on MMP-9.
MMP-9, sequence (P14780 107-707 limits assumed): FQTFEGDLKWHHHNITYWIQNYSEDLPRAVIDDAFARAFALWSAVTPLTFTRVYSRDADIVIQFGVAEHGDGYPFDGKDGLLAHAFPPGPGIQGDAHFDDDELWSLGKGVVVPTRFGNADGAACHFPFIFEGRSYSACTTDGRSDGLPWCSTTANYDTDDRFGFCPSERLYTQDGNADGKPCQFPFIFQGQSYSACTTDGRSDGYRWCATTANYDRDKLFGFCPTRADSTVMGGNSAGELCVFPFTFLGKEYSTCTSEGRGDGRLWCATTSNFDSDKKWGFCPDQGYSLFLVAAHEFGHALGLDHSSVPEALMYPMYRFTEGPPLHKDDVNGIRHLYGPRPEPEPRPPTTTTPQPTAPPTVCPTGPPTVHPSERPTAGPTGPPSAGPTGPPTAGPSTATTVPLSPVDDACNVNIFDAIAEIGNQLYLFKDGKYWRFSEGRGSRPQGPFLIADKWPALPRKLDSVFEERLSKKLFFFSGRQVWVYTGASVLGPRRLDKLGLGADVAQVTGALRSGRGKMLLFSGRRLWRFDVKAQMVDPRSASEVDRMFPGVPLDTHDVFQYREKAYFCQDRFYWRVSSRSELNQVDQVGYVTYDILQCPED
The next data set deals with T4, MMP-13 (Homo sapiens, UniProt P45452).
T4 construct: purchased Merck Millipore (Burlington, MA, USA)
The data set can be described thus: Fluorometric enzyme inhibition assay on MMP-13. Format: biochemical. The conditions noted are these: mean ± SD of three independent experiments.
Description: ARP100 [26], a hydroxamate-based MMP inhibitor previously developed by our research group, was used in the same assay conditions as the reference compound.
as §1, §2

Regarding `N#C/C(=C\c1cn(Cc2ccc(Cl)cc2)c2ccccc12)c1nn(-c2ccccc2)c(N)c1C#N` [Compound 11], the IC50 on MMP-14 worked out at 94 ± 5.5 µM; on MMP-1, 99 ± 8 µM; on MMP-2, 60 ± 4.6 µM; against MMP-9, 66 ± 4.6 µM.

`O=C(COC(=O)c1ccccc1Sc1ccc([N+](=O)[O-])cc1)c1ccc(-c2ccccc2)cc1` [Compound 12]: the half-inhibitory concentration (IC50) against MMP-14 is 67 ± 4.6 µM; against MMP-1 it was 75 ± 4 µM; at MMP-2, 47 ± 1.6 µM; against MMP-9, 72 ± 4.8 µM.

For `C/C(=N\NC(=O)Cc1ccc([N+](=O)[O-])cc1)c1ccc(NC(=O)c2ccc(Br)o2)cc1` [Compound 13, (E)-5-bromo-N-(4-(1-(2-(2-(4-nitrophenyl)acetyl)hydrazineylidene)ethyl)phenyl)furan-2-carboxamide], the half-inhibitory concentration (IC50) at MMP-14 turned out to be 63 ± 5.4 µM; at MMP-1, 91 ± 0.8 µM; against MMP-2 it was 99 ± 6 µM; at MMP-9, 68 ± 3 µM.

In turn, `C/C(=N\NC(=O)Cc1ccc([N+](=O)[O-])cc1)c1ccc(NC(=O)c2ccc(S(N)(=O)=O)o2)cc1` [Compound 13a] yielded a melting point of 255 to 258 °C. The half-maximal inhibitory concentration (IC50) against MMP-13 is above 100 µM.

With `C/C(=N\NC(=O)Cc1ccc([N+](=O)[O-])cc1)c1ccc(NC(=O)c2ccc(CO)o2)cc1` [Compound 13b, (E)-5-(hydroxymethyl)-N-(4-(1-(2-(2-(4nitrophenyl)acetyl)hydrazineylidene)ethyl)phenyl) furan-2-carboxamide], the melting point lay within 238 to 241 °C. The half-maximal inhibitory concentration (IC50) against MMP-13 was above 100 µM.

`O=C(Cc1ccc([N+](=O)[O-])cc1)N/N=C/c1ccc(NC(=O)c2ccc(Br)o2)cc1` [Compound 13c, (E)-5-bromo-N-(4-((2-(2-(4-nitrophenyl)acetyl)hydrazineylidene)methyl)phenyl)furan-2-carboxamide] returned a melting point of 277 to 279 °C.

The molecule `O=C(Cc1ccc([N+](=O)[O-])cc1)N/N=C/c1ccc(NC(=O)c2ccc(CO)o2)cc1` [Compound 13d, (E)-5-(hydroxymethyl)-N-(4-((2-(2-(4-nitrophenyl)acetyl)hydrazineylidene)methyl)phenyl) furan-2-carboxamide] gave a melting point of 246 to 248 °C. For the same molecule, the midpoint of inhibition against MMP-13, the IC50, lay at 40 ± 3.5 µM.

Molecule `C/C(=N\NC(=O)Cc1ccc(-c2nc(C)no2)cc1)c1ccc(NC(=O)c2ccc(Br)o2)cc1` [Compound 13e, (E)-5-bromo-N-(4-(1-(2-(2-(4-(3-methyl-1,2,4-oxadiazol-5-yl)phenyl)acetyl)hydrazineylidene)ethyl)phenyl)furan-2-carboxamide] came in with a melting point of 252 to 255 °C. The molecule further returned a half-inhibitory concentration (IC50) on MMP-13 above 100 µM.

Consider `C/C(=N\NC(=O)Cc1ccc(-c2nc(C)no2)cc1)c1ccc(NC(=O)c2ccc(CO)o2)cc1` [Compound 13f, (E)-5-(hydroxymethyl)-N-(4-(1-(2-(2-(4-(3-methyl-1,2,4-oxadiazol-5-yl)phenyl)acetyl)hydrazineylidene)ethyl)phenyl)furan-2-carboxamide], for which the melting point is 243 to 246 °C.

For the molecule `Cc1noc(-c2ccc(CC(=O)N/N=C/c3ccc(NC(=O)c4ccc(CO)o4)cc3)cc2)n1` [Compound 13g, (E)-5-(hydroxymethyl)-N-(4-((2-(2-(4-(3-methyl-1,2,4-oxadiazol-5-yl)phenyl)acetyl) hydrazono)methyl)phenyl)furan-2-carboxamide], the melting point was 232 to 235 °C.

In turn, `C/C(=N\NC(=O)Cc1ccc(C(=O)O)cc1)c1ccc(NC(=O)c2ccc(Br)o2)cc1` [Compound 13h, (E)-4-(2-(2-(1-(4-(5-bromofuran-2-carboxamido)phenyl)ethylidene)hydrazineyl)-2-oxoethyl)benzoic acid] displayed a melting point of 292 to 295 °C.

`C/C(=N\NC(=O)Cc1ccc(C(=O)O)cc1)c1ccc(NC(=O)c2ccc(CO)o2)cc1` [Compound 13i, (E)-4-(2-(2-(1-(4-(5-(hydroxymethyl)furan-2-carboxamido)phenyl)ethylidene)hydrazineyl)-2-oxoethyl)benzoic acid] gave a melting point of 232 to 235 °C.

On to `O=C(Cc1ccc(C(=O)O)cc1)N/N=C/c1ccc(NC(=O)c2ccc(Br)o2)cc1` [Compound 13l, (E)-4-(2-(2-(4-(5-bromofuran-2-carboxamido)benzylidene)hydrazineyl)-2-oxoethyl)benzoic acid], for which the melting point is 307 to 310 °C.

As for `O=C(Cc1ccc(C(=O)O)cc1)N/N=C/c1ccc(CNC(=O)c2ccc(Br)o2)cc1` [Compound 13m, (E)-4-(2-(2-(4-((5-bromofuran-2-carboxamido)methyl)benzylidene)hydrazineyl)-2-oxoethyl)benzoic acid], the 50% inhibitory concentration (IC50) against MMP-14 was above 200 µM; against MMP-1 it was 177 ± 20 µM; against MMP-2 it was 3.6 ± 0.4 µM; against MMP-9, 50 ± 3.2 µM.

As to `O=C(Cc1ccc(-c2nnn[nH]2)cc1)N/N=C/c1ccc(NC(=O)c2ccc(Br)o2)cc1` [Compound 13n, (E)-N-(4-((2-(2-(4-(1H-tetrazol-5-yl)phenyl)acetyl)hydrazineylidene)methyl)phenyl)-5-bromofuran-2-carboxamide], the melting point lay in the range of 262 to 265 °C.

`O=C(Cc1ccc(-c2nnn[nH]2)cc1)N/N=C/c1ccc(CNC(=O)c2ccc(Br)o2)cc1` [Compound 13o, (E)-N-(4-((2-(2-(4-(1H-tetrazol-5-yl)phenyl)acetyl)hydrazineylidene)methyl)benzyl)-5-bromofuran-2-carboxamide] yielded a melting point of 245 to 248 °C.
